One assay has as its system LoVo. The assay is described as follows: Antiproliferative activity against human LoVo cells after 48 hrs by MTT assay. The class given is functional, cell-based. (Tetrazolium assays rely on reduction of a dye to a coloured formazan, in cell work by metabolically active cells.)
Another assay has as its system HepG2. Put plainly: Antiproliferative activity against human HepG2 cells after 48 hrs by MTT assay. The class given is functional, cell-based.
The subject of another assay is A549. Put plainly: Antiproliferative activity against human A549 cells after 48 hrs by MTT assay. The class given is functional, cell-based.
Assay [1] relates to HeLa. The assay is described as follows: Antiproliferative activity against human HeLa cells after 48 hrs by MTT assay. The class given is functional, cell-based.
The target of assay [2] is Activin receptor type-1-like (Homo sapiens) (UniProt P37023). The assay is described as follows: Inhibition of ALK1 (unknown origin) using Kemptide as substrate at 1 uM after 60 mins by ADP-Glo luminescence assay relative to control.
In assay [3] the target is Vascular endothelial growth factor receptor 2 (Homo sapiens) (UniProt P35968). Put plainly: Inhibition of VEGFR2 (unknown origin) using Kemptide as substrate at 1 uM after 60 mins by ADP-Glo luminescence assay relative to control.
The species entered for the next assay is Homo sapiens. Put plainly: Inhibition of PI3K (unknown origin) using Kemptide as substrate at 1 uM after 60 mins by ADP-Glo luminescence assay relative to control.
Assay [4] has as its target RAC-alpha serine/threonine-protein kinase (Homo sapiens) (UniProt P31749). Put plainly: Inhibition of AKT (unknown origin) using Kemptide as substrate at 1 uM after 60 mins by ADP-Glo luminescence assay relative to control. (In general: ADP-Glo turns the ADP formed in a reaction into a luminescent signal.)
Assay [5] deals with T1, Aurora kinase B (Homo sapiens, UniProt Q96GD4). Put plainly: Inhibition of aurora B (unknown origin) using Kemptide as substrate after 60 mins by ADP-Glo luminescence assay.
In assay [6] the target is T1, Aurora kinase B. Put plainly: Inhibition of aurora B (unknown origin) using Kemptide as substrate at 1 uM after 60 mins by ADP-Glo luminescence assay relative to control.
The next assay deals with T2, Aurora kinase A (Homo sapiens, UniProt O14965).
T2 sequence (O14965 whole entry): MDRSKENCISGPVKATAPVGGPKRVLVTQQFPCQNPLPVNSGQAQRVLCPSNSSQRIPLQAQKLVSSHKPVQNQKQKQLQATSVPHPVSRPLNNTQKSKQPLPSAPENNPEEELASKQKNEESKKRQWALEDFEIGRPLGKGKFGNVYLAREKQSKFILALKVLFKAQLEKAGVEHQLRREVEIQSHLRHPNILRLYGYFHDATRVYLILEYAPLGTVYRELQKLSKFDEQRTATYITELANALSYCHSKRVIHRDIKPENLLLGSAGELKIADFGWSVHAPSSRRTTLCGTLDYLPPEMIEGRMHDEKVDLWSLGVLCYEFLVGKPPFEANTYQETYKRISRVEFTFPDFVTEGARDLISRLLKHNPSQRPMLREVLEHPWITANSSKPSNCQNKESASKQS
The assay is described as follows: Inhibition of aurora A (unknown origin) using Kemptide as substrate after 60 mins by ADP-Glo luminescence assay.

In assay [7] the target is T3, Aurora kinase A (Homo sapiens) (UniProt O14965).
T3 sequence (whole entry): T2 sequence (O14965 whole entry)
The assay is described as follows: Inhibition of aurora A (unknown origin) using Kemptide as substrate at 1 uM after 60 mins by ADP-Glo luminescence assay relative to control.

Assay [8] concerns the target T3, Aurora kinase A (Homo sapiens). The assay is described as follows: Inhibition of aurora A phosphorylation at Thr288 residues in human HeLa cells after 24 hrs by immunofluorescence assay. The class given is cell-based.
The target is the same in assay [9]. Put plainly: Inhibition of aurora A in human HeLa cells assessed as decrease in Bora level after 24 hrs by Western blot analysis. The class given is cell-based.
Assay [10] shares this target. The assay is described as follows: Inhibition of aurora A in human HeLa cells assessed as decrease in Eg5 level after 24 hrs by Western blot analysis. The class given is cell-based. In general terms: Immunoblotting shows a protein as a band on a membrane.
For assay [11], the target named is T1, Aurora kinase B. The assay is described as follows: Inhibition of aurora B phosphorylation at Thr232 residues in human HeLa cells after 24 hrs by immunofluorescence assay. The class given is cell-based.
Assay [12] relates to HeLa. Put plainly: Induction of morphological changes in human HeLa cells assessed as disrupting mitotic spindle formation at 5 uM after 24 hrs by DAPI-staining based immunofluorescence assay. The class given is functional, cell-based.
The target in assay [13] is T1, Aurora kinase B. The assay is described as follows: Inhibition of aurora B in human HeLa cells assessed as decrease in HisH3 phosphorylation at ser10 residues after 24 hrs by Western blot analysis. The class given is cell-based.
Assay [14] concerns the target T3, Aurora kinase A (Homo sapiens). Put plainly: Inhibition of aurora A in human HeLa cells assessed as decrease in TPX2 level after 24 hrs by Western blot analysis. The class given is cell-based.

The structures appear in SMILES notation. The source made the active and inactive calls. The rule behind the calls is not given here.

Usually IC50 stands for the concentration at which inhibition is half-maximal. The inhibition is the change of the read-out against control, counted positive when it falls.

T1 sequence (Q96GD4 whole entry): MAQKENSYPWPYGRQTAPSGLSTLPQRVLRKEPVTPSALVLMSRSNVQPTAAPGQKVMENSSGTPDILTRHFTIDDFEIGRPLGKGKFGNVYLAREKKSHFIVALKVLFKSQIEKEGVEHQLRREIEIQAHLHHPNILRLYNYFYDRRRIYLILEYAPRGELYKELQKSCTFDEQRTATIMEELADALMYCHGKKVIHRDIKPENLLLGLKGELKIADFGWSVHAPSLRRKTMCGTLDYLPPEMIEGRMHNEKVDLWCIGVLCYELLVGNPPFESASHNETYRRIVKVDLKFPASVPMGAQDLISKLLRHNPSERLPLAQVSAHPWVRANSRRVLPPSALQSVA
Vascular endothelial growth factor receptor 2 (Homo sapiens), sequence (P35968 whole entry): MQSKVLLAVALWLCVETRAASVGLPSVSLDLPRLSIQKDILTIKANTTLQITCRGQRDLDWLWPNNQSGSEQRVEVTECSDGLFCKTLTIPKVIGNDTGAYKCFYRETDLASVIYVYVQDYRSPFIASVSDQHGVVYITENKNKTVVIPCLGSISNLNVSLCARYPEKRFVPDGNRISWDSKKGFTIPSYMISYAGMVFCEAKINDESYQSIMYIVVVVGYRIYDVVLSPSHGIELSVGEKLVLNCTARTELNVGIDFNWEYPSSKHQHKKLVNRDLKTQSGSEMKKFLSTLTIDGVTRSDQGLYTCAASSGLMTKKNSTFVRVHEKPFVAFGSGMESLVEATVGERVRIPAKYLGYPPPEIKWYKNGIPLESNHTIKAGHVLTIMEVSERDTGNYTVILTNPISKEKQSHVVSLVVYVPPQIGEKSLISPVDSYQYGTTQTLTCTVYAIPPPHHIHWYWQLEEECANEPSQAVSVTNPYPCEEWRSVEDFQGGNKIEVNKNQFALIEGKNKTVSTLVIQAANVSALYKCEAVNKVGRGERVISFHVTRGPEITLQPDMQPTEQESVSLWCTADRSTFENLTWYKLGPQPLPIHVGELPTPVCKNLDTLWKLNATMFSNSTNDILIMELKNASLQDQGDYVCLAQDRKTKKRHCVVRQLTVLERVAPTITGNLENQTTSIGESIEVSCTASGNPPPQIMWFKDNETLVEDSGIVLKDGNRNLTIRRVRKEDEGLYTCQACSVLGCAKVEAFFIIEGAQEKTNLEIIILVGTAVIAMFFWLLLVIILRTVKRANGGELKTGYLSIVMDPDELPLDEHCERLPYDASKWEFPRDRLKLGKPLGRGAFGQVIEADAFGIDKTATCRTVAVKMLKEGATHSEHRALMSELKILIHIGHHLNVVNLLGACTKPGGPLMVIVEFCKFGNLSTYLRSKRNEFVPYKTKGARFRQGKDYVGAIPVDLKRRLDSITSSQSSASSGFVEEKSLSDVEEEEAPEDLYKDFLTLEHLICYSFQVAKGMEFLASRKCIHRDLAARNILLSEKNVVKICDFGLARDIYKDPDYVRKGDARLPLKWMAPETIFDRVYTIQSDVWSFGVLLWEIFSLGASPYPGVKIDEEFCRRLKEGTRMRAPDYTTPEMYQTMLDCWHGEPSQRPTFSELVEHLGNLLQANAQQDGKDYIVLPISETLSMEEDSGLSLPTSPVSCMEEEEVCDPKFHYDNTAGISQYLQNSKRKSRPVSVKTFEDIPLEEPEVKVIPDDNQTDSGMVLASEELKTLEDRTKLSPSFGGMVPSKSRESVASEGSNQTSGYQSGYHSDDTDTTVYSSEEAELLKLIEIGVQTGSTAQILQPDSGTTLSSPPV
Activin receptor type-1-like (Homo sapiens), sequence (P37023 whole entry): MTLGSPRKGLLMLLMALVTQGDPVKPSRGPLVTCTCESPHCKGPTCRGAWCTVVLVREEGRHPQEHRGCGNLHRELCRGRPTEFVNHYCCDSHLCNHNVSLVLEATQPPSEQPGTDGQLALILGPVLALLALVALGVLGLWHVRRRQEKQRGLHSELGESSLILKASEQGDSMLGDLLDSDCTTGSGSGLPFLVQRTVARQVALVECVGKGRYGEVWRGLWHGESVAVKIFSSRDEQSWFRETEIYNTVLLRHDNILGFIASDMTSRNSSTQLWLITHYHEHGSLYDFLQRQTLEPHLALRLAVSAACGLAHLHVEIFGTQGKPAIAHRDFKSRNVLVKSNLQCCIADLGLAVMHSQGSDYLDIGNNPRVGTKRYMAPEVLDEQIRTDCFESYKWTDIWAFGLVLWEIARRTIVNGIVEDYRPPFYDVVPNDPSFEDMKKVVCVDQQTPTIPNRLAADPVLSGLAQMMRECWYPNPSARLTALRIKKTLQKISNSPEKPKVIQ
RAC-alpha serine/threonine-protein kinase (Homo sapiens), sequence (P31749 whole entry): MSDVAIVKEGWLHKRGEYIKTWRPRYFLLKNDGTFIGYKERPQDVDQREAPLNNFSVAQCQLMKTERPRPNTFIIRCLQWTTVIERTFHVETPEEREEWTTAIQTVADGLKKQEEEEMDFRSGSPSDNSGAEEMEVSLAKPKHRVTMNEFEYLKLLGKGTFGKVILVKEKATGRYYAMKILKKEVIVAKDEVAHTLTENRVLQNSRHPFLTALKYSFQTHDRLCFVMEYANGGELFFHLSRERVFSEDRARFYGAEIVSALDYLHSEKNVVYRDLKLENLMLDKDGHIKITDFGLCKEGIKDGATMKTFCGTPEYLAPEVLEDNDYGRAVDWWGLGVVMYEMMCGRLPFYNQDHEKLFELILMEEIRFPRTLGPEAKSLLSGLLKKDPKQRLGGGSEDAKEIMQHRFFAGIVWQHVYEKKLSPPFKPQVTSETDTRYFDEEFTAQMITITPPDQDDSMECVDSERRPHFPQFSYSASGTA

For the compound `CC1(C)CC(NC(=O)c2ccc(Nc3ncc(F)c(N4CCOCC4)n3)cc2)CC(C)(C)N1[O]`, the IC50 came out at 35.5 µM in the assay on LoVo (lovo), 22.6 µM in the assay with HepG2 (hepg2), 13.2 µM in the assay with A549 (a549) and 14.3 µM with HeLa [1] (hela).
Take `CC1(C)CC(NC(=O)c2ccc(Nc3ncc(F)c(NCCCNc4ccc([N+](=O)[O-])cc4)n3)cc2)CC(C)(C)N1[O]`: the IC50 with LoVo (lovo) is 53.6 µM; in the assay on HepG2 (hepg2), 19.8 µM; in the assay with A549 (a549), 12.4 µM; in the assay with HeLa [1] (hela) it was 31.7 µM.
Consider `Cc1cc(Nc2nc(Nc3ccc(C(=O)NC4CC(C)(C)N([O])C(C)(C)C4)cc3)ncc2F)no1`, for which the inhibition in [2] was found to be 39%; in assay [3], 57%; in the assay listed under Homo sapiens it was 18%; in assay [4] it was 0%; at Aurora kinase B [6], 76.5%; in assay [7], 69%. In addition, the IC50 with LoVo (Homo sapiens, LoVo, 48 h) was found to be 12 µM; in the assay with HepG2 (Homo sapiens, HepG2, 48 h) it was 10.8 µM; in the assay with A549 (Homo sapiens, A549, 48 h), 0.88 µM; against Aurora kinase B [5], 0.0173 µM; in the assay with HeLa [1] (Homo sapiens, HeLa, 48 h), 5.68 µM; against Aurora kinase A it was 0.0201 µM.
For the compound `CC1(C)CC(NC(=O)c2ccc(Nc3ncc([N+](=O)[O-])c(N4CCN(c5ccc(F)cc5)CC4)n3)cc2)CC(C)(C)N1[O]`, the half-maximal inhibitory concentration (IC50) came out at 27.8 µM with LoVo (lovo), 13.1 µM with HepG2 (hepg2), 10.2 µM with A549 (a549) and 25.3 µM in the assay on HeLa [1] (hela).
Taken in the same sequence, the figures for `Cc1cc(Nc2nc(Nc3ccc(C(=O)NC4CC(C)(C)N([O])C(C)(C)C4)cc3)ncc2[N+](=O)[O-])n[nH]1` were > 100 µM, 37.5 µM, 15.3 µM and 29.1 µM.
Turning to `Cc1cc(Nc2nc(Nc3ccc(C(=O)NC4CC(C)(C)N([O])C(C)(C)C4)cc3)ncc2F)n[nH]1`, the IC50 was 42.2 µM with LoVo (lovo), 10.8 µM with HepG2 (hepg2), 2.12 µM with A549 (a549) and 11.2 µM in the assay on HeLa [1] (hela).
For `CCCCOC(=O)Cc1csc(Nc2nc(Nc3ccc(C(=O)NC4CC(C)(C)N([O])C(C)(C)C4)cc3)ncc2F)n1`, the IC50 turned out to be 21.9 µM with LoVo (lovo), 11.5 µM in the assay on HepG2 (hepg2), 2.31 µM with A549 (a549) and 5.23 µM in the assay on HeLa [1] (hela).
Taken in the same sequence, the figures for `CCOC(=O)Cc1csc(Nc2nc(Nc3ccc(C(=O)NC4CC(C)(C)N([O])C(C)(C)C4)cc3)ncc2[N+](=O)[O-])n1` were 27 µM, 26.4 µM, 1.04 µM and 12 µM.
Taken in the same sequence, the figures for `CCOC(=O)c1csc(Nc2nc(Nc3ccc(C(=O)NC4CC(C)(C)N([O])C(C)(C)C4)cc3)ncc2[N+](=O)[O-])n1` were 12.5 µM, 6.87 µM, 0.74 µM and 3.79 µM.
With `CCCCOC(=O)Cc1cc(Nc2nc(Nc3ccc(C(=O)NC4CC(C)(C)N([O])C(C)(C)C4)cc3)ncc2F)n[nH]1`, the inhibition in [2] was 33.5%; in [3], 35.5%; in assay [8], “Dose-dependent effect”; in the assay filed under Homo sapiens it was 7%; in assay [9], “Dose-dependent effect”; in [4] it was 0%. The inhibition entry in assay [10] was “Dose-dependent effect”; on Aurora kinase B [11], “Dose-dependent effect”; at Aurora kinase B [13], “Dose-dependent effect”; in assay [14] it was “Dose-dependent effect”; at Aurora kinase B [6] it was 90.5%; in [7] it was 84.5%. For the same compound, the half-inhibitory concentration (IC50) in the assay with LoVo (Homo sapiens, LoVo, 48 h) turned out to be 11.4 µM; with HepG2 (Homo sapiens, HepG2, 48 h) it was 5.73 µM; in the assay with A549 (Homo sapiens, A549, 48 h), 0.89 µM; at Aurora kinase B [5], 0.0028 µM; in the assay on HeLa [1] (Homo sapiens, HeLa, 48 h), 2.72 µM; against Aurora kinase A, 0.0093 µM. For the same compound, in the assay on HeLa [12], the result was Active.
With `Cc1cc(Nc2cc(N3CCN(C)CC3)nc(Sc3ccc(NC(=O)C4CC4)cc3)n2)n[nH]1` [TOZASERTIB], the IC50 in the assay on LoVo (Homo sapiens, LoVo, 48 h) was found to be 45.3 µM; in the assay with HepG2 (Homo sapiens, HepG2, 48 h), 53.3 µM; with A549 (Homo sapiens, A549, 48 h), 35.8 µM; in the assay on HeLa [1] (Homo sapiens, HeLa, 48 h), 46.2 µM.
On to `CC(C)OC(=O)Cc1csc(Nc2nc(Nc3ccc(C(=O)NC4CC(C)(C)N([O])C(C)(C)C4)cc3)ncc2F)n1`, for which the IC50 in the assay on LoVo (lovo) is 11.9 µM; in the assay with HepG2 (hepg2), 13.4 µM; with A549 (a549), 3.42 µM; in the assay on HeLa [1] (hela), 11.2 µM.
Taken in the same sequence, the figures for `CC1(C)CC(NC(=O)c2ccc(Nc3ncc([N+](=O)[O-])c(NC4CCCC4)n3)cc2)CC(C)(C)N1[O]` were 41.2 µM, 28.7 µM, 33.2 µM and 55.6 µM.
Taken in the same sequence, the figures for `Cc1cc(Nc2nc(Nc3ccc(C(=O)NC4CC(C)(C)N([O])C(C)(C)C4)cc3)ncc2[N+](=O)[O-])no1` were 26.8 µM, 7.36 µM, 1.14 µM and 7.36 µM.
Taken in the same sequence, the figures for `CCN1CCN(c2nc(Nc3ccc(C(=O)NC4CC(C)(C)N([O])C(C)(C)C4)cc3)ncc2[N+](=O)[O-])CC1` were 39.7 µM, 56.8 µM, 1.96 µM and 17.5 µM.

Values taken from ChEMBL document CHEMBL4368924, “Synthesis and biological evaluation of nitroxide labeled pyrimidines as Aurora kinase inhibitors” (Bioorg Med Chem Lett, 2019).
